PMC9781268, “2-Arylpropionic Acid Pyrazolamides as Cannabinoid CB2 Receptor Inverse Agonists Endowed with Anti-Inflammatory Properties” (Pharmaceuticals, 2022)
pKi: −log10 of the molar value. ≈ marks a conversion by molar mass, not a printed value.

Key:
[1] = design: method as in ZHU et al., 2002; settings: Table S1, PAMPA-GTI, drugs used as standard; ref ZHU et al., 2002; cited from earlier work
[2] = Table S2, PAMPA-BBB, drugs used as standard; cited from earlier work
[3] = Parallel artificial membrane permeability assay, blood-brain barrier (PAMPA-BBB); settings: for PAMPA-BBB Score: porcine brain lipid membrane
Protocol: In a 5 mL glass vial, 1 mg of each compound (test or control) was dissolved in 1 mL of ethanol. Then, 500 μL of ethanol and 3.5 mL of PBS at pH 7.4 were added to this solution. […] After 5 min, the donor plate received 180 μL of each compound solution in triplicate. […] The experiments were performed in triplicate with two different analyses (n = 2).

[4] = tested on: CB1 receptors; design: method as in PMID 22172309; settings: cited from earlier work
[5] = target: CB2 receptor; design: method as in PMID 22172309; settings: cited from earlier work; for pKi: CB2 receptor
[6] = tested on: plasma carboxylesterases; assay: Plasma stability against enzymatic hydrolysis; format: in vitro ADME, Wistar rats; settings: rat plasma, determined after 240 min
Protocol: For the evaluation of plasma stability against plasma carboxylesterases, a pool of plasma male Wistar rats weighing 300–360 g kept in the vivarium of the Laboratory of Biochemical and Molecular Pharmacology-UFRJ was used. Blood was collected with heparin and kept on ice. Then, the samples were centrifuged at 2000 rpm for 15 min at 20 °C, with subsequent removal of the plasma. The plasma was then diluted 80% (v/v) with phosphate buffer (PBS; pH = 7.4) at 37 °C. The experiments performed in this work were approved by the Ethics Committee on the Use of Animals in Scientific Experiments of the Health Sciences Center of the Federal University of Rio de Janeiro (Number 028/15). The biological matrix was incubated at 37 °C under agitation for 30, 60, 120, and 240 min. The degree of degradation was evaluated by HPLC-PDA with methyl 1,1′bisphenyl-4-carboxylate as an internal standard (PI), using an isocratic mobile phase of 70%:30% acetonitrile:water (0–15 min), an injection volume of 20 μL, a flow rate of 1 mL/min, and detection at 254 nm.

[7] = Parallel artificial membrane permeability assay, gastrointestinal (PAMPA-GI / PAMPA-GTI); settings: for Papp at 8 h, 0.5 mM: PAMPA; for Classification / Pe Exp / Fa: Table S1, PAMPA-GTI; for Fa / PAMPA-GI Fa Exp: absorbed fraction; for PAMPA-GI Fa Exp: soybean L-α-phosphatidylcholine membrane
Protocol: A 10 mM solution of each compound (tests and controls) was prepared in DMSO. Then, in a 5 mL glass flask, 250 µL of the freshly prepared solution was homogenized with 4750 µL of PBS at pH 6.6 to a concentration of 10 mM. The solution was then filtered in a 0.45 µm PVDF filter and set aside. Then, 180 µL of a solution of phosphate-bufffered saline (PBS, pH 7.4):DMSO (95:5) was added to the wells of the receptor plate, and 5 µL of the soy L-α-phosphatidylcholine lipid solution (20 mg/mL in dodecane) was added to the wells of the donor plate. After 5 min, the donor plate received 180 µL of the reserved solution containing each compound. […] After this period, the donor plate was removed, and the contents of the recipient plate were transferred to a UV reading plate and read (SpectraMax 5, Molecular Devices) at the maximum wavelengths for each compound. The blank was prepared with 180 µL of PBS solution (pH 7.4):DMSO (95:5). The experiments were carried out in triplicate with two different analyses (n = 2) [37]. The optical density values obtained from the readings at each selected wavelength for each of the compounds were analyzed by comparison with the values of the controls. These values were used to determine the absorbed fraction (Fa %) using the JMP® program version 10.0.

[8] = Distribution coefficient at pH 7.4 (shake-flask, octanol/phosphate buffer); format: physicochemical; settings: 1-octanol/buffer pH 7.4; n-octanol/buffer partitioning at pH 7.4, UV method; read-out: Log D7.4
Protocol: The assay was performed based on the shake-flask method and the absorbance readings by ultraviolet spectroscopy at maximum absorbance wavelength. To a Falcon tube with a capacity of 15 mL, 5 mL of buffer solution at pH 7.4 and 5 mL of 1-octanol were added. Then, the tested compounds were added at defined concentrations of approximately 10–15 µM, and the mixtures were homogenized via vigorous manual shaking. Next, the Falcon tubes were stirred for 4 h at 37 °C, and the experiment was carried out in triplicate for each compound. Subsequently, each sample was placed in a separatory funnel, and the collected aqueous phase was filtered through a 0.45 µm PVDF filter and transferred to a quartz cuvette (10 mm optical path) for UV/Vis reading. The distribution coefficient of each compound at pH 7.4 was determined by linear regression using the straight-line equation [33].

[9] = Aqueous solubility (thermodynamic, UV spectroscopy); format: physicochemical; settings: aqueous buffer, thermodynamic from solid, phosphate buffer pH 7.4, 37 °C
Protocol: The test was performed based on the absorbance obtained by ultraviolet spectroscopy. The scanning wavelength was determined according to the highest absorbance observed for each compound. Saturated aqueous solution of the analyzed compounds were stirred for 4 h at 37 °C, and then filtered through a 0.45 µm PVDF filter and transferred to a quartz cuvette (10 mm optical path) for reading. Solubility was determined by linear regression based on the equation of the line.

[10] = PAMPA, 2.75 h, 0.2 mg/mL, pH 7.4

For `CC(C)NCC(O)COc1ccc(CC(N)=O)cc1` (stereo not drawn) [Atenolol, reference compound], the “Pe Lit” value [1] is listed as 0,1 10-6cm/s, the Pe literatura [2] is listed as 0,8 10-6 cm s-1 and the Pe experimental [3, 10] is listed as 0,46 10-6 cm s-1. The Classification ([3]; Table S2, PAMPA-BBB) was “CNS -”.

For `Cn1c(=O)c2c(ncn2C)n(C)c1=O` [Caffeine, reference compound], the Pe literatura [2] is listed as 1,3 10-6 cm s-1, the Pe experimental [3, 10] is listed as 0,81 10-6 cm s-1 and the Classification ([3]; Table S2, PAMPA-BBB) is listed as “CNS -”.

In the case of `CCCCC/C=C\C/C=C\C/C=C\C/C=C\CCCC(=O)Nc1c(C)n(C)n(-c2ccccc2)c1=O` [Compound 5], the “Affinity for CB1 receptors” value [4] is listed as “micromolar affinity”, the pKi [5] is listed as 5.27 and the “Affinity for CB2 receptors” value [5] is listed as “micromolar affinity”.

For `CCCCC/C=C\C/C=C\C/C=C\C/C=C\CCCC(=O)N(C)c1c(C)n(C)n(-c2ccccc2)c1=O` [Compound 6], the “Affinity for CB1 receptors” value [4] is listed as “micromolar affinity”, the pKi [5] is listed as 5.52 and the “Affinity for CB2 receptors” value [5] is listed as “micromolar affinity”.

For `Cc1c(NC(=O)C(C)c2ccc(CC(C)C)cc2)c(=O)n(-c2ccccc2)n1C` (stereo not drawn) [Compound 7, N-(1,5-dimethyl-3-oxo-2-phenyl-2,3-dihydro-1H-pyrazol-4-yl)-2-(4-isobutylphenyl) propanamide], the “Plasma Metabolization Rate” value [6] was 56.13%, the melting point was 151.2 °C and the Papp at 8 h, 0.5 mM [7] was 15.4 ×10⁻⁶ cm/s. For the same compound, the Classification [7] was “HIGH (high intestinal permeability: >70%)”, the “Pe Exp” value [7] was 15,38 10-6 cm/s and the Fa [7] was 99,71%. For the same compound, the “PAMPA-GI Fa Exp” value [7] was 99.71%, the logD [8] was 2.47 and the Papp at 2.75 h, 0.2 mg/mL ([3]; PAMPA, pH 7.4) was 12.8 ×10⁻⁶ cm/s. The Classification ([3]; Table S2, PAMPA-BBB) was “CNS +”, the Pe experimental ([3]; Table S2, PAMPA-BBB) was 12,77 10-6 cm s-1 and the “PAMPA-BBB Score” value [3] was “CNS+ (CNS+ (high predicted BBB permeability) Pe > 4.0 × 10^−6 cm/s)”. It also gave a solubility at 4 h [9] of 12.1 µM (≈ 4.75 µg/mL).

For `Cc1c(NC(=O)C(C)c2ccc(-c3ccccc3)c(F)c2)c(=O)n(-c2ccccc2)n1C` (stereo not drawn) [Compound 8, N-(1,5-dimethyl-3-oxo-2-phenyl-2,3-dihydro-1H-pyrazol-4-yl)-2-(2-fluoro-[1,1^′-biphenyl]-4-ylil) propanamide], the “Plasma Metabolization Rate” value [6] was 18.66%, the melting point was 214.8 °C and the Papp at 8 h, 0.5 mM [7] was 9.69 ×10⁻⁶ cm/s. The Classification [7] was “HIGH (high intestinal permeability: >70%)”, the “Pe Exp” value [7] was 9,69 10-6 cm/s and the Fa [7] was 97,49%. The “PAMPA-GI Fa Exp” value [7] was 97.49%, the logD [8] was 1.94 and the Papp at 2.75 h, 0.2 mg/mL ([3]; PAMPA, pH 7.4) was 17.2 ×10⁻⁶ cm/s. For the same compound, the Classification ([3]; Table S2, PAMPA-BBB) was “CNS +”, the Pe experimental ([3]; Table S2, PAMPA-BBB) was 17,25 10-6 cm s-1 and the “PAMPA-BBB Score” value [3] was “CNS+ (CNS+ (high predicted BBB permeability) Pe > 4.0 × 10^−6 cm/s)”. For the same compound, the solubility at 4 h [9] was 59.1 µM (≈ 25.4 µg/mL).

For `Cc1c(NC(=O)Cc2ccc(-c3ccccc3)cc2)c(=O)n(-c2ccccc2)n1C` [Compound 9, 2-([1,1’-biphenyl]-4-yl)-N-(1,5-dimethyl-3-oxo-2-phenyl-2,3-dihydro-1H-pyrazol-4-yl) acetamide], the “Plasma Metabolization Rate” value [6] was 24.56%, the melting point was 221.8 °C and the Papp at 8 h, 0.5 mM [7] was 11 ×10⁻⁶ cm/s. The Classification [7] was “HIGH (high intestinal permeability: >70%)”, the “Pe Exp” value [7] was 11,00 10-6 cm/s and the Fa [7] was 98,47%. For the same compound, the “PAMPA-GI Fa Exp” value [7] was 98.47%, the logD [8] was 2.14 and the Papp at 2.75 h, 0.2 mg/mL ([3]; PAMPA, pH 7.4) was 4.51 ×10⁻⁶ cm/s. For the same compound, the Classification ([3]; Table S2, PAMPA-BBB) was “CNS +”, the Pe experimental ([3]; Table S2, PAMPA-BBB) was 4,51 10-6 cm s-1 and the “PAMPA-BBB Score” value [3] was “CNS+ (CNS+ (high predicted BBB permeability) Pe > 4.0 × 10^−6 cm/s)”. For the same compound, the solubility at 4 h [9] was 21.3 µM (≈ 8.47 µg/mL).

In the case of `Cc1c(N(C)C(=O)C(C)c2ccc(CC(C)C)cc2)c(=O)n(-c2ccccc2)n1C` (stereo not drawn) [Compound 10, N-(1,5-dimethyl-3-oxo-2-phenyl-2,3-dihydro-1H-pyrazol-4-yl)-2-(4-isobutylphenyl)-N-methylpropanamide], the “Plasma Metabolization Rate” value [6] was 32.50%, the Papp at 8 h, 0.5 mM [7] was 2.51 ×10⁻⁶ cm/s and the Classification [7] was “HIGH (high intestinal permeability: >70%)”. The “Pe Exp” value [7] was 9,15 10-6 cm/s, the Fa [7] was 96,91% and the logD [8] was 2.43. For the same compound, the Papp at 2.75 h, 0.2 mg/mL ([3]; PAMPA, pH 7.4) was 12.7 ×10⁻⁶ cm/s, the Classification ([3]; Table S2, PAMPA-BBB) was “CNS +” and the Pe experimental ([3]; Table S2, PAMPA-BBB) was 12,68 10-6 cm s-1. The “PAMPA-BBB Score” value [3] was “CNS+ (CNS+ (high predicted BBB permeability) Pe > 4.0 × 10^−6 cm/s)” and the solubility at 4 h [9] was 47.7 µM (≈ 19.3 µg/mL).

In the case of `CN1C(=O)CN=C(c2ccccc2)c2cc(Cl)ccc21` [Diazepam, reference compound], the Pe literatura [2] is given as 16 10-6 cm s-1, the Classification ([3]; Table S2, PAMPA-BBB) is given as “CNS +” and the Pe experimental ([3]; Table S2, PAMPA-BBB) is given as 14,30 10-6 cm s-1.

In the case of `CCn1cc(C(=O)O)c(=O)c2cc(F)c(N3CCNCC3)nc21` [Enoxacin, reference compound], the Pe literatura [2] is listed as 0,9 10-6 cm s-1, the Pe experimental [3, 10] is listed as 0,53 10-6 cm s-1 and the Classification ([3]; Table S2, PAMPA-BBB) is listed as “CNS -”.
